Values of other authors in patent publication US8222237B2, “Progestational 3-(6,6-ethylene-17B-hydroxy-3-oxo-17A-pregna-4-ene-17A-yl)propionic acid G-lactones” (Evestra, Inc., priority 2008, dated 2012).

Legend:
[1] = from a single entity tablet
[2] = acidic conditions such as encountered in the gastric environment
[3] = at various pH values

In the case of `C[C@]12CCC(=O)C=C1[C@@H]1C[C@@H]1[C@H]1[C@@H]3[C@@H]4C[C@@H]4[C@@]4(CCC(=O)O4)[C@@]3(C)CC[C@@H]12` [drospirenone, 6β,7β,15β,16β-dimethylene-3-oxo-17α-pregn-4-ene-21,17-carbolactone], the absolute bioavailability [1] is given as “about 76%”, the “isomerization under acidic conditions” value [2] is given as “undergo isomerization to a form that is inactive” and the solubility in water [3] is given as “only sparingly soluble”.
